Reference: ChEMBL document CHEMBL1275466, “Diversity of penicillin binding proteins among clinical Streptococcus pneumoniae strains from Portugal” (2008)
Values after ≈ are worked out from the molar mass of the structure shown.

Key:
Assay type in all cases: functional
Streptococcus pneumoniae [1] = assay: Antibacterial activity against multidrug resistant Streptococcus pneumoniae serotype 19A URA5805 harboring mutant PBP2B PBP2X and PBP1A
Streptococcus pneumoniae [2] = assay: Antibacterial activity against multidrug resistant Streptococcus pneumoniae serotype 19A ATCC 700673 harboring mutant PBP2B PBP2X and PBP1A
Streptococcus pneumoniae [3] = assay: Antibacterial activity against penicillin-resistant Streptococcus pneumoniae serotype 14 URA5128 harboring mutant PBP2B PBP2X and PBP1A
Streptococcus pneumoniae [4] = assay: Antibacterial activity against multidrug resistant Streptococcus pneumoniae serotype 14 URA4203 harboring mutant PBP2B PBP2X and PBP1A
Streptococcus pneumoniae [5] = assay: Antibacterial activity against Streptococcus pneumoniae serotype 3 URA3537 harboring mutant PBP1A
Streptococcus pneumoniae [6] = assay: Antibacterial activity against multidrug resistant Streptococcus pneumoniae serotype 23F ATCC 51916 harboring mutant PBP2B PBP2X and PBP1A
Streptococcus pneumoniae [7] = assay: Antibacterial activity against multidrug resistant Streptococcus pneumoniae serotype 24F URA5450 harboring mutant PBP2B PBP2X and PBP1A
Streptococcus pneumoniae [8] = assay: Antibacterial activity against penicillin-cefotaxime- ceftriaxone-resistant Streptococcus pneumoniae serotype 14 URA3043 harboring mutant PBP2B PBP2X and PBP1A
Streptococcus pneumoniae [9] = assay: Antibacterial activity against Streptococcus pneumoniae R6
Streptococcus pneumoniae [10] = assay: Antibacterial activity against Streptococcus pneumoniae URA2543 harboring mutant PBP1A
Streptococcus pneumoniae [11] = assay: Antibacterial activity against multidrug resistant Streptococcus pneumoniae serotype 15A URA5779 harboring mutant PBP2B PBP2X and PBP1A
Streptococcus pneumoniae [12] = assay: Antibacterial activity against erythromycin-resistant Streptococcus pneumoniae serotype 14 URA4933 harboring mutant PBP2X and PBP1A
Streptococcus pneumoniae [13] = assay: Antibacterial activity against multidrug resistant Streptococcus pneumoniae serotype 6B URA4566 harboring mutant PBP2B PBP2X and PBP1A
Streptococcus pneumoniae [14] = assay: Antibacterial activity against Streptococcus pneumoniae serotype 19F URA4087 harboring mutant PBP2X and PBP1A
Streptococcus pneumoniae [15] = assay: Antibacterial activity against penicillin-resistant Streptococcus pneumoniae serotype 14 URA4731 harboring mutant PBP2B PBP2X and PBP1A
Streptococcus pneumoniae [16] = assay: Antibacterial activity against multidrug resistant Streptococcus pneumoniae serotype 19F URA3699 harboring mutant PBP2B PBP2X and PBP1A
Streptococcus pneumoniae [17] = assay: Antibacterial activity against Streptococcus pneumoniae serotype 4 ATCC BAA-334 harboring mutant PBP1A
Streptococcus pneumoniae [18] = assay: Antibacterial activity against multidrug resistant Streptococcus pneumoniae serotype 23 URA3558 harboring mutant PBP2X and PBP1A
Streptococcus pneumoniae [19] = assay: Antibacterial activity against Streptococcus pneumoniae serotype 9V URA4929 harboring mutant PBP1A
Streptococcus pneumoniae [20] = assay: Antibacterial activity against penicillin-resistant Streptococcus pneumoniae serotype 23F URA5391 harboring mutant PBP2B PBP2X and PBP1A
Streptococcus pneumoniae [21] = assay: Antibacterial activity against penicillin-cefotaxime- ceftriaxone-resistant Streptococcus pneumoniae URA6056 harboring mutant PBP2B PBP2X and PBP1A
Streptococcus pneumoniae [22] = assay: Antibacterial activity against penicillin-cefotaxime- ceftriaxone-resistant Streptococcus pneumoniae serotype 14 URA3543 harboring mutant PBP2B PBP2X and PBP1A
Streptococcus pneumoniae [23] = assay: Antibacterial activity against Streptococcus pneumoniae serotype 22 URA2542 harboring PBP2B harboring mutant PBP2B PBP2X and PBP1A
Streptococcus pneumoniae [24] = assay: Antibacterial activity against penicillin-resistant Streptococcus pneumoniae serotype 19A URA3635 harboring mutant PBP2B PBP2X and PBP1A
Streptococcus pneumoniae [25] = assay: Antibacterial activity against multidrug resistant Streptococcus pneumoniae serotype 6B ATCC 700670 harboring mutant PBP2B PBP2X and PBP1A
Streptococcus pneumoniae [26] = assay: Antibacterial activity against tetracycline- erythromycin- clindamycin-resistant Streptococcus pneumoniae serotype 6B URA4376 harboring mutant PBP1A

SMILES: CC1(C)S[C@@H]2[C@H](NC(=O)Cc3ccccc3)C(=O)N2[C@H]1C(=O)O [PENICILLIN G]
- MIC (Streptococcus pneumoniae [1]): 1.6 µg/mL (≈ 4.78 µM)
- MIC (Streptococcus pneumoniae [2]): 2 µg/mL (≈ 5.98 µM)
- MIC (Streptococcus pneumoniae [3]): 0.5 µg/mL (≈ 1.5 µM)
- MIC (Streptococcus pneumoniae [4]): 1.6 µg/mL (≈ 4.78 µM)
- MIC (Streptococcus pneumoniae [5]): 0.0125 µg/mL (≈ 0.0374 µM)
- MIC (Streptococcus pneumoniae [6]): 0.1 µg/mL (≈ 0.299 µM)
- MIC (Streptococcus pneumoniae [7]): 0.5 µg/mL (≈ 1.5 µM)
- MIC (Streptococcus pneumoniae [8]): 2 µg/mL (≈ 5.98 µM)
- MIC (Streptococcus pneumoniae [9]): 0.0125 µg/mL (≈ 0.0374 µM)
- MIC (Streptococcus pneumoniae [10]): 0.025 µg/mL (≈ 0.0748 µM)
- MIC (Streptococcus pneumoniae [11]): 0.1 µg/mL (≈ 0.299 µM)
- MIC (Streptococcus pneumoniae [12]): 0.0125 µg/mL (≈ 0.0374 µM)
- MIC (Streptococcus pneumoniae [13]): 0.1 µg/mL (≈ 0.299 µM)
- MIC (Streptococcus pneumoniae [14]): 0.025 µg/mL (≈ 0.0748 µM)
- MIC (Streptococcus pneumoniae [15]): 0.1 µg/mL (≈ 0.299 µM)
- MIC (Streptococcus pneumoniae [16]): 0.5 µg/mL (≈ 1.5 µM)
- MIC (Streptococcus pneumoniae [17]): 0.0125 µg/mL (≈ 0.0374 µM)
- MIC (Streptococcus pneumoniae [18]): 0.2 µg/mL (≈ 0.598 µM)
- MIC (Streptococcus pneumoniae [19]): 0.0125 µg/mL (≈ 0.0374 µM)
- MIC (Streptococcus pneumoniae [20]): 0.1 µg/mL (≈ 0.299 µM)
- MIC (Streptococcus pneumoniae [21]): 3.2 µg/mL (≈ 9.57 µM)
- MIC (Streptococcus pneumoniae [22]): 2 µg/mL (≈ 5.98 µM)
- MIC (Streptococcus pneumoniae [23]): 0.05 µg/mL (≈ 0.15 µM)
- MIC (Streptococcus pneumoniae [24]): 0.1 µg/mL (≈ 0.299 µM)
- MIC (Streptococcus pneumoniae [25]): 2 µg/mL (≈ 5.98 µM)
- MIC (Streptococcus pneumoniae [26]): 0.0125 µg/mL (≈ 0.0374 µM)
